Experimental data from US9282741B2, “Aniline type compounds” (BASF SE, priority 2011, dated 2016).

Assays:
[1] = log P determination via capillary electrophorese (cePro9600); assay type: physicochemical; conditions: pH = 10.0
Protocol: log P determinations were performed via capillary electrophorese on a cePro9600™ from CombiSep.

[2] = tested on: vetch aphid (Megoura viciae); assay: Vetch aphid (Megoura viciae) broad bean leaf disk microtiter test; assay type: in vivo; conditions: 1415 ppm; broad bean leaf disks; 5 days
Protocol: B.2 Vetch Aphid (Megoura viciae)
For evaluating control of vetch aphid (Megoura viciae) through contact or systemic means the test unit consists of 24-well-microtiter plates containing broad bean leaf disks.
The compounds are formulated using a solution containing 75% v/v water and 25% v/v DMSO. Different concentrations of formulated compounds are sprayed onto the leaf disks at 2.5 μl, using a custom built micro atomizer, at two replications.
After application, the leaf disks are air-dried and 5-8 adult aphids placed on the leaf disks inside the microtiter plate wells. The aphids are then allowed to suck on the treated leaf disks and incubated at about […] and about 50±5% relative humidity for 5 days. Aphid mortality and fecundity is then visually assessed.

[3] = tested on: Tobacco Budworm (Heliothis virescens); assay: Tobacco budworm (Heliothis virescens) I, foliar spray on cotton plants; assay type: in vivo; conditions: 800 ppm, 4 days after treatment
Protocol: B.3 Tobacco Budworm (Heliothis virescens) I
The active compounds are formulated in cyclohexanone as a 10,000 ppm solution supplied in tubes. The tubes are inserted into an automated electrostatic sprayer equipped with an atomizing nozzle and they serve as stock solutions for which lower dilutions are made in 50% acetone:50% water (v/v). A nonionic surfactant (Kinetic®) is included in the solution at a volume of 0.01% (v/v).
Cotton plants are grown 2 plants to a pot and selected for treatment at the cotyledon stage. Test solutions are sprayed onto the foliage by an automated electrostatic plant sprayer equipped with an atomizing spray nozzle. The plants are dried in the sprayer fume hood and then removed from the sprayer. Each pot is placed into perforated plastic bags with a zip closure. About 10 to 11 budworm larvae are placed into the bag and the bags zipped closed. Test plants are maintained in a growth room at about 250C and about 20-40% relative humidity for 4 days, avoiding direct exposure to fluorescent light (24 hour photoperiod) to prevent trapping of heat inside the bags. Mortality and reduced feeding are assessed 4 days after treatment, compared to untreated control plants.

Compound	logP [1]	further results
CCCS(C)=NC(=O)c1cc(I)cc(C)c1NC(=O)c1cc(Br)nn1-c1ncccc1Cl (racemic) [compound 272]	logP: 3.2 [pH = 10.0]	
CCS(CC1CC1)=NC(=O)c1cc(Cl)cc(C)c1N (centres unmarked) [S.9]		mortality in comparison with untreated controls [2]: over 75%
CCCS(CCC)=NC(=O)c1cc(Cl)cc(Cl)c1N [S.22]		mortality in comparison with untreated controls [3]: over 75%
CCCS(C)=NC(=O)c1cc(Cl)cc(C)c1NC(=O)c1cc(C(F)(F)F)nn1-c1ncccc1Cl (centres unmarked) [compound 11]	logP: 3.2 [pH = 10.0]	
Cc1cc(Cl)cc(C(=O)N=S(C(C)C)C(C)C)c1NC(=O)c1cc(C(F)(F)F)nn1-c1ncccc1Cl [compound 24]	logP: 3.3 [pH = 10.0].	
Cc1cc(I)cc(C(=O)N=S(C)C)c1NC(=O)c1cc(C(F)(F)F)nn1-c1ncccc1Cl [compound 31]	logP: 3.2 [pH = 10.0];	
CCS(C)=NC(=O)c1cc(I)cc(C)c1NC(=O)c1cc(C(F)(F)F)nn1-c1ncccc1Cl (centres unmarked) [compound 33]	logP: 3.3 [pH = 10.0];	
CCCCCS(CCO)=NC(=O)c1cc(Cl)cc(C)c1NC(=O)c1cc(C(F)(F)F)nn1-c1ncccc1Cl (centres unmarked) [compound 48]	logP: 3.6 [pH = 10.0];	
Cc1cc(I)cc(C(=O)N=S2CCCCC2)c1NC(=O)c1cc(C(F)(F)F)nn1-c1ncccc1Cl [compound 71]	logP: 3.6 [pH = 10.0];	
CCCS(C)=NC(=O)c1cc(I)cc(C)c1NC(=O)c1cc(C(F)(F)F)nn1-c1ncccc1Cl (centres unmarked) [compound 93]	logP: 3.6 [pH = 10.0];	
Cc1cc(Cl)cc(C(=O)N=S(C)C)c1NC(=O)c1cc(C(F)(F)F)nn1-c1ncccc1Cl [compound 110]	logP: 2.9 [pH = 10.0];	
CCCCCS(CCO)=NC(=O)c1cc(I)cc(C)c1NC(=O)c1cc(C(F)(F)F)nn1-c1ncccc1Cl (centres unmarked) [compound 113]	logP: 3.9 [pH = 10.0];	
Cc1cc(I)cc(C(=O)N=S(C(C)C)C(C)C)c1NC(=O)c1cc(C(F)(F)F)nn1-c1ncccc1Cl [compound 120]	logP: 3.4 [pH = 10.0];	
Cc1cc(I)cc(C(=O)N=S2CCSC2)c1NC(=O)c1cc(C(F)(F)F)nn1-c1ncccc1Cl (centres unmarked) [compound 129]	logP: 3.5 [pH = 10.0];	
Cc1cc(I)cc(C(=O)N=S2CCCC2)c1NC(=O)c1cc(C(F)(F)F)nn1-c1ncccc1Cl [compound 137]	logP: 3.1 [pH = 10.0];	
CCS(C)=NC(=O)c1cc(Cl)cc(C)c1NC(=O)c1cc(C(F)(F)F)nn1-c1ncccc1Cl (centres unmarked) [compound 152]	logP: 2.9 [pH = 10.0];	
C#CCOc1cc(C(=O)Nc2c(C)cc(I)cc2C(=O)N=S(CCO)CCCCC)n(-c2ncccc2Cl)n1 (centres unmarked) [compound 195]	logP: 3.5 [pH = 10.0]	
C#CCOc1cc(C(=O)Nc2c(C)cc(I)cc2C(=O)N=S(C(C)C)C(C)C)n(-c2ncccc2Cl)n1 [compound 196]	logP: 3.1 [pH = 10.0]	
C#CCOc1cc(C(=O)Nc2c(C)cc(Cl)cc2C(=O)N=S(C(C)C)C(C)C)n(-c2ncccc2Cl)n1 [compound 197]	logP: 2.7 [pH = 10.0]	
Cc1cccc(C(=O)N=S(C)C)c1NC(=O)c1cc(C(F)(F)F)nn1-c1ncccc1Cl [compound 199]	logP: 2.2 [pH = 10.0];	
C#CCOc1cc(C(=O)Nc2c(C)cc(Cl)cc2C(=O)N=S2CCSC2)n(-c2ncccc2Cl)n1 (centres unmarked) [compound 200]	logP: 2.5 [pH = 10.0]	
C#CCOc1cc(C(=O)Nc2c(C)cc(Cl)cc2C(=O)N=S(C)c2ccc(F)cc2)n(-c2ncccc2Cl)n1 (centres unmarked) [compound 201]	logP: 2.9 [pH = 10.0]	
C#CCOc1cc(C(=O)Nc2c(C)cc(I)cc2C(=O)N=S(C)c2ccc(F)cc2)n(-c2ncccc2Cl)n1 (centres unmarked) [compound 204]	logP: 3.4 [pH = 10.0]	
C#CCOc1cc(C(=O)Nc2c(C)cc(Cl)cc2C(=O)N=S2CCCCC2)n(-c2ncccc2Cl)n1 [compound 209]	logP: 2.8 [pH = 10.0]	
CCS(C)=NC(=O)c1cccc(C)c1NC(=O)c1cc(C(F)(F)F)nn1-c1ncccc1Cl (centres unmarked) [compound 210]	logP: 2.5 [pH = 10.0];	

Compound	logP [1]	further results
CCCS(C)=NC(=O)c1cccc(C)c1NC(=O)c1cc(C(F)(F)F)nn1-c1ncccc1Cl (centres unmarked) [compound 211]	logP: 2.8 [pH = 10.0];	
CCCCCS(CCO)=NC(=O)c1cccc(C)c1NC(=O)c1cc(C(F)(F)F)nn1-c1ncccc1Cl (centres unmarked) [compound 213]	logP: 3.4 [pH = 10.0];	
Cc1cccc(C(=O)N=S(C(C)C)C(C)C)c1NC(=O)c1cc(C(F)(F)F)nn1-c1ncccc1Cl [compound 214]	logP: 2.7 [pH = 10.0];	
Cc1cccc(C(=O)N=S(C)c2ccc(F)cc2)c1NC(=O)c1cc(C(F)(F)F)nn1-c1ncccc1Cl (centres unmarked) [compound 215]	logP: 3.2 [pH = 10.0];	
C#CCOc1cc(C(=O)Nc2c(C)cc(Cl)cc2C(=O)N=S(CCO)CCCCC)n(-c2ncccc2Cl)n1 (centres unmarked) [compound 216]	logP: 3.3 [pH = 10.0]	
Cc1cc(I)cc(C(=O)N=S2CCSC2)c1NC(=O)c1cc(Br)nn1-c1ncccc1Cl (centres unmarked) [compound 221]	logP: 3.3 [pH = 10.0];	
Cc1cccc(C(=O)N=S2CCCC2)c1NC(=O)c1cc(Br)nn1-c1ncccc1Cl [compound 222]	logP: 2.1 [pH = 10.0]	
CCS(C)=NC(=O)c1cc(I)cc(C)c1NC(=O)c1cc(Br)nn1-c1ncccc1Cl (centres unmarked) [compound 223]	logP: 3.1 [pH = 10.0];	
CCS(C)=NC(=O)c1cc(Cl)cc(C)c1NC(=O)c1cc(Br)nn1-c1ncccc1Cl (centres unmarked) [compound 224]	logP: 2.7 [pH = 10.0];	
Cc1cc(Cl)cc(C(=O)N=S(C)c2ccc(F)cc2)c1NC(=O)c1cc(Br)nn1-c1ncccc1Cl (centres unmarked) [compound 235]	logP: 3.2 [pH = 10.0];	
Cc1cccc(C(=O)N=S(C(C)C)C(C)C)c1NC(=O)c1cc(Br)nn1-c1ncccc1Cl [compound 236]	logP: 2.3 [pH = 10.0];	
Cc1cccc(C(=O)N=S(C)c2ccc(F)cc2)c1NC(=O)c1cc(Br)nn1-c1ncccc1Cl (centres unmarked) [compound 237]	logP: 2.7 [pH = 10.0];	
Cc1cc(I)cc(C(=O)N=S(C)c2ccc(F)cc2)c1NC(=O)c1cc(Br)nn1-c1ncccc1Cl (centres unmarked) [compound 238]	logP: 3.5 [pH = 10.0];	
CCCS(C)=NC(=O)c1cc(Cl)cc(C)c1NC(=O)c1cc(Br)nn1-c1ncccc1Cl (centres unmarked) [compound 242]	logP: 2.9 [pH = 10.0];	
Cc1cc(Cl)cc(C(=O)N=S(C(C)C)C(C)C)c1NC(=O)c1cc(Br)nn1-c1ncccc1Cl [compound 243]	logP: 2.9 [pH = 10.0]	
Cc1cc(I)cc(C(=O)N=S2CCCC2)c1NC(=O)c1cc(Br)nn1-c1ncccc1Cl [compound 246]	logP: 2.9 [pH = 10.0];	
CCCCCS(CCO)=NC(=O)c1cccc(C)c1NC(=O)c1cc(Br)nn1-c1ncccc1Cl (centres unmarked) [compound 250]	logP: 2.9 [pH = 10.0]	
CCCCCS(CCO)=NC(=O)c1cc(I)cc(C)c1NC(=O)c1cc(Br)nn1-c1ncccc1Cl (centres unmarked) [compound 252]	logP: 3.7 [pH = 10.0]	
Cc1cc(I)cc(C(=O)N=S(C(C)C)C(C)C)c1NC(=O)c1cc(Br)nn1-c1ncccc1Cl [compound 257]	logP: 3.3 [pH = 10.0];	
CCCCCS(CCO)=NC(=O)c1cc(Cl)cc(C)c1NC(=O)c1cc(Br)nn1-c1ncccc1Cl (centres unmarked) [compound 258]	logP: 3.4 [pH = 10.0];	
C=CS(CC)=NC(=O)c1cccc(C)c1NC(=O)c1cc(Br)nn1-c1ncccc1Cl (centres unmarked) [compound 261]	logP: 2.1 [pH = 10.0];	
CCCS(C)=NC(=O)c1cccc(C)c1NC(=O)c1cc(Br)nn1-c1ncccc1Cl (centres unmarked) [compound 263]	logP: 2.3 [pH = 10.0];	
Cc1cc(I)cc(C(=O)N=S2CCCCC2)c1NC(=O)c1cc(Br)nn1-c1ncccc1Cl [compound 267]	logP: 3.4 [pH = 10.0];	
CCS(CCCl)=NC(=O)c1cc(I)cc(C)c1NC(=O)c1cc(Br)nn1-c1ncccc1Cl (centres unmarked) [compound 268]	logP: 3.2 [pH = 10.0];	
Cc1cccc(C(=O)N=S(C)C)c1NC(=O)c1cc(Br)nn1-c1ncccc1Cl [compound 274]	logP: 1.9 [pH = 10.0];	
